From ChEMBL document CHEMBL1137565, “Discovery of novel 8-azoniabicyclo[3.2.1]octane carbamates as muscarinic acetylcholine receptor antagonists” (Bioorg Med Chem Lett, 2007)

Columns and labels:
[1] = target: T1, Muscarinic acetylcholine receptor M2 (Homo sapiens, UniProt P08172); test: Antagonist activity at cloned muscarinic M2 receptor expressed in CHO cells by measuring calcium mobilization; format: functional, cell-based
T1 sequence (P08172 whole entry): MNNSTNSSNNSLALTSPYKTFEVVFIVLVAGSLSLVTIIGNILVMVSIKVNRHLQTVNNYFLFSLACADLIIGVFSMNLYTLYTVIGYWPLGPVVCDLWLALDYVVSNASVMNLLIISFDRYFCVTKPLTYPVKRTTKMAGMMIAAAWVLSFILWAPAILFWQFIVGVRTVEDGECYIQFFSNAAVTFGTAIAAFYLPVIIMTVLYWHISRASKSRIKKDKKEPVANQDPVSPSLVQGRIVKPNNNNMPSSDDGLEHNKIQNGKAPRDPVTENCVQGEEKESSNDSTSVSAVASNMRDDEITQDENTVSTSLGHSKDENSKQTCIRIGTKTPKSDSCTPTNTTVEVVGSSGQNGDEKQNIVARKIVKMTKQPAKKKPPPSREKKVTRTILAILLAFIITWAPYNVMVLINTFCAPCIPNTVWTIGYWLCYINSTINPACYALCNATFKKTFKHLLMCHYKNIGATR

[2] = organism: Mus musculus; test: Effect on metacholine-induced bronchoconstriction in mouse assessed as bronchoprotection at 5 ug after 24 hrs; format: functional
[3] = target: T2, Muscarinic acetylcholine receptor M1 (Homo sapiens, UniProt P11229); test: Antagonist activity at cloned muscarinic M1 receptor expressed in CHO cells by measuring calcium mobilization; format: functional, cell-based
T2 sequence (P11229 whole entry): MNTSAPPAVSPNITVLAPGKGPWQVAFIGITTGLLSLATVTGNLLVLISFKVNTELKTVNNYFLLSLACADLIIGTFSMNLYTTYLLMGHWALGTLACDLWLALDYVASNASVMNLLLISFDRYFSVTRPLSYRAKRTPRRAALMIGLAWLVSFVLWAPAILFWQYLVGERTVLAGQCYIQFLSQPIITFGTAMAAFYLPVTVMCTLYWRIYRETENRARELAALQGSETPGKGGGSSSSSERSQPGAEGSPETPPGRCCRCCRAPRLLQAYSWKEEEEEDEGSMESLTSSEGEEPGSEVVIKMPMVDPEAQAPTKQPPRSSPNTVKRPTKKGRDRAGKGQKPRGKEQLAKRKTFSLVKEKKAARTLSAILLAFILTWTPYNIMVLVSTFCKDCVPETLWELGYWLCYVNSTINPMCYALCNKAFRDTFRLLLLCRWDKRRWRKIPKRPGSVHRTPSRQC

[4] = organism: Mus musculus; test: Effect on metacholine-induced bronchoconstriction in mouse assessed as bronchoprotection at 5 ug after 15 mins; format: functional
[5] = target: Muscarinic acetylcholine receptor M3 (Homo sapiens, UniProt P20309); test: Antagonist activity at cloned muscarinic M3 receptor expressed in CHO cells by measuring calcium mobilization; format: functional, cell-based
[6] = target: Muscarinic acetylcholine receptor M1 and M3 (Homo sapiens) (UniProt P20309+P11229); test: Selectivity for cloned muscarinic M3 receptor over cloned muscarinic M1 receptor
[7] = target: Muscarinic acetylcholine receptors; M2 & M3 (Homo sapiens) (UniProt P20309+P08172); test: Selectivity for cloned muscarinic M3 receptor over cloned muscarinic M2 receptor
[8] = organism: Mus musculus; test: Effect on metacholine-induced bronchoconstriction in mouse assessed as bronchoprotection at 5 ug after 5 hrs; format: functional

Sequence of Muscarinic acetylcholine receptor M3 (P20309 whole entry): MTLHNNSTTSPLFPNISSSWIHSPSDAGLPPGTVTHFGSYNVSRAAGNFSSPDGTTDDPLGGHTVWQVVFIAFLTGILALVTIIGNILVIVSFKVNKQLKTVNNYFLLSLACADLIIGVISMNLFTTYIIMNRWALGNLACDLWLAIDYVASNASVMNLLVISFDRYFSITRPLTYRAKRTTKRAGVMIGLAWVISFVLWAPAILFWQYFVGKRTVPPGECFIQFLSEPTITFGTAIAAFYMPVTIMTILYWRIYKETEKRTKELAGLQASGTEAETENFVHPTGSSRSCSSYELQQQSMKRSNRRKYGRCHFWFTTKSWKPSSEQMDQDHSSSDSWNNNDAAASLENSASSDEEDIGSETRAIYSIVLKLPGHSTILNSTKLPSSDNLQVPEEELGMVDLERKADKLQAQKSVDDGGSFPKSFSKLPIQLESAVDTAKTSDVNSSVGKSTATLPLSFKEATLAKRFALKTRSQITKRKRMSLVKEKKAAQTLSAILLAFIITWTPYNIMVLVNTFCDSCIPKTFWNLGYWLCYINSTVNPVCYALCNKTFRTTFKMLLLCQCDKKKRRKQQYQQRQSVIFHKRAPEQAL
Sequence of Muscarinic acetylcholine receptor M1 and M3 (Homo sapiens) (P20309 whole entry, looked up, one chain of several): as the sequence (P20309 whole entry) above

In the case of C[N+]1(C)[C@@H]2CC[C@H]1C[C@H](OC(=O)N(Cc1ccccc1)c1ccsc1)C2.[Br-], the IC50 [1] is reported as 10.9 nM, the Activity [2] is reported as 25% and the IC50 [3] is reported as 2.1 nM. It also gave an Activity [4] of 85%, an IC50 [5] of 2 nM and a Ratio IC50 [6] of 1. The Ratio IC50 [7] was 5.5 and the Activity [8] was 80%.
